Data published in ChEMBL document CHEMBL5727989, “Compounds useful as inhibitors of ATR kinase” (2020).

Molecular target: Serine/threonine-protein kinase ATR (Homo sapiens, UniProt Q13535)
Experiment: Inhibition Assay: Assays were carried out at 25° C. in the presence of 5 nM full-length ATR. An assay stock buffer solution was prepared containing all of the reagents listed above, with the exception of ATP and the test compound of interest. 13.5 μL of the stock solution was placed in a 96 well plate followed by addition of 2 μL of DMSO stock containing serial dilutions of the test compound (typically starting from a final concentration of 15 μM with 3-fold serial dilutions) in duplicate (final DMSO concentration 7%). The plate was pre-incubated for 10 minutes at 25° C. and the reaction initiated by addition of 15 μL [γ-33P]ATP (final concentration 10 μM). The reaction was stopped after 24 hours by the addition of 30 μL 0.1M phosphoric acid containing 2 mM ATP. A multiscreen phosphocellulose filter 96-well plate (Millipore, Cat no. MAPHN0B50) was pretreated with 100 μL 0.2M phosphoric acid prior to the addition of 45 μL of the stopped assay mixture. The plate was washed with 5×200 μL 0.2M phosphoric acid. After drying, 100 μL Optiphase SuperMix liquid scintillation cocktail (Perkin Elmer) was added to the well prior to scintillation counting (1450 Microbeta Liquid Scintillation Counter, Wallac).

Serine/threonine-protein kinase ATR, sequence (Q13535 whole entry): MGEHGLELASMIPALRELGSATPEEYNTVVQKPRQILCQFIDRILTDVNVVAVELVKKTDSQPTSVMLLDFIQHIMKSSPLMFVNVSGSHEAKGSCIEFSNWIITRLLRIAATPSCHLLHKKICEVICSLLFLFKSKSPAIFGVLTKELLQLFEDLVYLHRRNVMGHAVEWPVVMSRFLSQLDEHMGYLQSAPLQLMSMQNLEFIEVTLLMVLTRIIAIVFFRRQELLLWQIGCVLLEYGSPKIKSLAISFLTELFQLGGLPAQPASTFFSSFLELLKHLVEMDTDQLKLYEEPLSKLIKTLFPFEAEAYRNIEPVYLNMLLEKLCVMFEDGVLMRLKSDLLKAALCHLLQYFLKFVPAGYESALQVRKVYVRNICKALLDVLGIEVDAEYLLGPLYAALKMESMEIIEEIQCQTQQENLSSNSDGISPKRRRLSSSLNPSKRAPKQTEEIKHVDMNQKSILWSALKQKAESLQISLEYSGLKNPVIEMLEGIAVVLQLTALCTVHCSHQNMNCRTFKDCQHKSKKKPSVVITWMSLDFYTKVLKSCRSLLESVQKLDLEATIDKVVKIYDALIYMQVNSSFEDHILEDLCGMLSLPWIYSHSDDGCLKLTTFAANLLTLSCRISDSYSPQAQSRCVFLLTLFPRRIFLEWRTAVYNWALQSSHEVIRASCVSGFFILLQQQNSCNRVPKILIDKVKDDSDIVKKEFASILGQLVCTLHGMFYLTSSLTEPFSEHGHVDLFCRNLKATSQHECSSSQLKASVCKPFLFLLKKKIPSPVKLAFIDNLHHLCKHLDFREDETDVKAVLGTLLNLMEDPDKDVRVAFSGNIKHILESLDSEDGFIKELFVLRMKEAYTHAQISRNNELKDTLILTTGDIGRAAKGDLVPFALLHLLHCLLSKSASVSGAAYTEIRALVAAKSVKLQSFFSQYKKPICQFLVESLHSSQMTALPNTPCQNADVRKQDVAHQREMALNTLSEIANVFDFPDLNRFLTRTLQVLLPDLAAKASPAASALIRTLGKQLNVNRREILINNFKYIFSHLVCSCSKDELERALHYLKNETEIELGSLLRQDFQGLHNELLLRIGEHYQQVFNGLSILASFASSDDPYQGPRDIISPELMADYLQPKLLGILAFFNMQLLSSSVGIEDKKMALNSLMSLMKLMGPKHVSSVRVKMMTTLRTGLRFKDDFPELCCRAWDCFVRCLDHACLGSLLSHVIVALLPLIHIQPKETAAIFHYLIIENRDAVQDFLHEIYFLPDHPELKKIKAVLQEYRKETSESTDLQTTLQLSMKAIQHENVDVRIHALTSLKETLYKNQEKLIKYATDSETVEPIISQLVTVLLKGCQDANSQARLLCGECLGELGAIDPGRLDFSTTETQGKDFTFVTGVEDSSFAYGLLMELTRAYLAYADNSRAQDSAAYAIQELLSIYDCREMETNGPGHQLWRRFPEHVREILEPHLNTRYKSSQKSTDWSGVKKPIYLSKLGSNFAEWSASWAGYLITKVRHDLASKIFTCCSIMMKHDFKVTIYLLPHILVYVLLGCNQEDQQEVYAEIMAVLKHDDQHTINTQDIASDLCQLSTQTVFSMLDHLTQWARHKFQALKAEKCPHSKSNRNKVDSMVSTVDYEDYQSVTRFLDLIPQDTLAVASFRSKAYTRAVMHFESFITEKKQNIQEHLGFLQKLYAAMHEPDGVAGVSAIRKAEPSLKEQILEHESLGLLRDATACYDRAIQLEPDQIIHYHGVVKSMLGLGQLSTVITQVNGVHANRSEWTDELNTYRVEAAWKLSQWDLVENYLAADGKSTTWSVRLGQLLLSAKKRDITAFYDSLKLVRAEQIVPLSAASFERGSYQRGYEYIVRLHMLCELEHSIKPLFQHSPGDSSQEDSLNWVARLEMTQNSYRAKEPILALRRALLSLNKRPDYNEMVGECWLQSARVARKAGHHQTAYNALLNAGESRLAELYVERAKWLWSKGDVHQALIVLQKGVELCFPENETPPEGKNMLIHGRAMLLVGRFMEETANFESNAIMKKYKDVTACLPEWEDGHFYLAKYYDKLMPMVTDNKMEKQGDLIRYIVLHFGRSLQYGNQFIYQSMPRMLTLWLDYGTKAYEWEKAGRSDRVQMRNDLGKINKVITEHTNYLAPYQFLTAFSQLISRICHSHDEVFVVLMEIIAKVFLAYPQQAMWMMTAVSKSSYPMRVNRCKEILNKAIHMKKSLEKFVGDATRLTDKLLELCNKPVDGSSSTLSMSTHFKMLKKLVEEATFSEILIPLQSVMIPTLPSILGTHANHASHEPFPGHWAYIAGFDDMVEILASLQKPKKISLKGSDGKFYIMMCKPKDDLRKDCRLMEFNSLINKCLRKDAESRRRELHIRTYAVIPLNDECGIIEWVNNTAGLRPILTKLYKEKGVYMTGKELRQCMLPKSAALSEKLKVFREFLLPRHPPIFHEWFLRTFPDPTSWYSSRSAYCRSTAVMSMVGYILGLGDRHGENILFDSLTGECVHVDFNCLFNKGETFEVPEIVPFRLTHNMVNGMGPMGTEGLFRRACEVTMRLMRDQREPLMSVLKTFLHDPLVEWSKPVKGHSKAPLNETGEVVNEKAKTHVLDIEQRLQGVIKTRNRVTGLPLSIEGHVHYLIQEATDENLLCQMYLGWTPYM

| SMILES | Ki |
| --- | --- |
| Nc1nn2cc(F)cnc2c1C(=O)Nc1cnccc1N1CCOCC1 | in the range around 505 nM |
| Nc1nn2cc(F)cnc2c1C(=O)Nc1cnccc1N1CCCCC1 | in the range around 505 nM |
| Cc1nn(C)cc1-c1ccncc1NC(=O)c1c(N)nn2cc(F)cnc12 | in the range around 505 nM |

Other lines, results leading:

| Ki | SMILES |
| --- | --- |
| in the range around 505 nM | CNC(=O)C1CCN(c2c(F)cncc2NC(=O)c2c(N)nn3cc(F)cnc23)CC1 |
| in the range around 505 nM | COC1CCN(c2ccncc2NC(=O)c2c(N)nn3cc(F)cnc23)CC1 |
| in the range around 505 nM | CN(C)CCNC(=O)C1CCN(c2c(F)cncc2NC(=O)c2c(N)nn3cc(F)cnc23)CC1 |
